Measured values: patent publication US20080220446A1, “Method for Detecting and/or Removing Protein and/or Peptide Comprising a Cross-Beta Structure From an Aqueous Solution Comprising a Protein” (priority 2005, published 2008)
pKd: −log10 of the molar value. Where “and” joins values, the source holds several entries; their conditions need not be identical. Identical values can stand only once. Each block holds one molecule with its values, some of them ahead of it.

Experiments:
platelets = assay: Aggregometric assay with washed platelets; type: cell-based, human
Description: The presence of protein(s) and/or peptide(s) with amyloid-like misfolded protein conformation on activated blood platelets was tested with washed platelets in an aggregometric assay. Freshly drawn human aspirin free blood was mixed gently with citrate buffer to avoid coagulation. Blood was spinned for 15 minutes at 150*g at 20° C. and supernatant was collected; platelet rich plasma (PRP). […] After spinning down the platelets upon centrifugation for 15 minutes at 330*g at 20° C., the pellet was resuspended in HEPES-Tyrode buffer pH 6.5. Prostacyclin was added to a final concentration of 10 ng/ml, and the solution was centrifuged for 15 minutes at 330*g at 20° C., with a soft brake. The pellet was resuspended in HEPES-Tyrode buffer pH 7.2 in a way that the final platelet number was adjusted to 200,000/μl. Platelets were kept at 37° C. for at least 30 minutes, before use in the assays, to ensure that they were in the resting state.
For the aggregometric assays, 400 μl platelet solution was added to a glass tube with 100 μl containing the agonist of interest, fibrinogen and CaCl2. Final concentrations of fibrinogen and CaCl2 were 0.5 mg/ml and 3 mM, respectively. A stirring magnet was added and the apparatus (Whole-blood aggregometer, Chrono-log, Havertown, Pa., USA) was blanked. Aggregation was followed in time by measuring the absorbance of the solution, that will decrease in time upon platelet aggregation. As a positive control, 0.5 U/ml thrombin was used, or TRAP. Aggregation was followed for 10 minutes. Influence of 200 μM Thioflavin T, 200 μM Congo red or 1 μM tPA on platelet aggregation was analyzed.

[1] = molecular target: T1, LRP cl-IV binding to BSA-AGE (Bos taurus, UniProt P02769); assay: ELISA, interference with LRP cl-IV binding to BSA-AGE; set-up: species or system human; conditions: concentration series, 50 times diluted LRP cl-IV medium
T1 construct: made in house; host or cells: HEK293E/S (LRP cl-IV, culture supernatant)
Description: To test whether amyloid-like crossbeta structure binding compounds tPA, Congo red, Thioflavin T and Thioflavin S interfere with LRP cl-IV binding to BSA-AGE, concentration series of the potential inhibitory amyloid binding moieties were tested in the presence of 50 times diluted medium containing LRP cl-IV. The following inhibitors were used: tPA, Congo red, Thioflavin T (ThT) and Thioflavin S (ThS). As a control to tPA, K2P tPA, which lacks the amyloid-like misfolded protein binding finger domain, was included in the analyses. The influence of tPA and K2P tPA was tested in the presence of 10 mM ε-amino caproic acid to avoid binding of the kringle2 domain of tPA and K2P tPA to lysine- and arginine residues. Binding buffer and K2P tPA serve as negative controls in these inhibition studies. The concentration series was measured in triplicate, the values averaged and standard deviations calculated. Background signals obtained with buffer-coated wells were subtracted. Signals obtained with binding of LRP cluster IV to BSA-AGE was set arbitrarily to a reference binding of 100% and signals obtained with the concentration series of misfolded protein binding moieties and K2P tPA were calculated based on this set reference.

[2] = tested on: tPA binding to amyloid-like aggregates; conditions: ELISAs; patent application P57716EP00 and unpublished data; cited from earlier work
tPA [3] = molecular target: T2, tPA (Homo sapiens, UniProt P00750); assay: tPA ELISA with coated protein therapeutics; type: binding; conditions: ELISA, stored at the recommended temperature of 4° C.
Description: (§1) Formulated protein therapeutics were obtained from the local hospital pharmacy and were used as supplied by the manufacturers. […] Lyophilized therapeutics were dissolved according to the manufacturers recommendations. GH, zinc-insulin, Cealb and gelatin were stored at −20, 4, room temperature, 37 and 65° C. Other protein therapeutics were only kept at 4° C., and assayed for the presence of cross-β structure at shown time points. Enhancement in fluorescence of ThT and Congo red was measured with all formulated protein therapeutics. For this purpose, proteins were diluted to the indicated concentrations. […] Zinc-insulin was diluted tenfold in the activation assay, GH was diluted to a final concentration of 500 μg ml^−1. Activation of factor XII and prekallikrein by the therapeutics was tested in the chromogenic factor XII assay (see above). […] After coating, plates were blocked with Blocking Reagent (Roche Diagnostics, Almere, The Netherlands).

factor XII = molecular target: T3, factor XII (Homo sapiens, UniProt P00748); assay: Factor XII / prekallikrein activation assay (Chromozym-PK); type: biochemical
T3 construct: purified human factor XII from plasma (Calbiochem); purchased Calbiochem; host or cells: human plasma
T3 sequence (P00748 20-615): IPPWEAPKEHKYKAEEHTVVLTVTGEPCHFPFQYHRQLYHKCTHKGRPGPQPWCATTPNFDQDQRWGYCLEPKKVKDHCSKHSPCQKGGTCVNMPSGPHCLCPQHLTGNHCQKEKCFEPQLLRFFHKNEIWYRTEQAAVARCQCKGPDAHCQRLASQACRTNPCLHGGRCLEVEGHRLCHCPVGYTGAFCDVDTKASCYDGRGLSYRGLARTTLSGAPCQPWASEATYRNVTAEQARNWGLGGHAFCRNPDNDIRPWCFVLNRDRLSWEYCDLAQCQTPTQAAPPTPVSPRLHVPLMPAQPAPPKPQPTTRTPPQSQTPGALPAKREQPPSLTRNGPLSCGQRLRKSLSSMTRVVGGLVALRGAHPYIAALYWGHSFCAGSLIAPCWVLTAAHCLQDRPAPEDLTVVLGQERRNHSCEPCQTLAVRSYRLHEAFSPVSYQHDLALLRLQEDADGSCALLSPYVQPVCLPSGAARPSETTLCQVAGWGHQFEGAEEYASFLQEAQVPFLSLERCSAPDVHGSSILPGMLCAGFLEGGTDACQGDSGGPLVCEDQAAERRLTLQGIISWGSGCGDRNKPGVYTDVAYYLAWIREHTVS
Description: Plasmin (Pls) activity was assayed as described^16. Peptides and proteins that were tested for their stimulatory ability were regularly used at 100 μg ml^−1. […] Chromogenic substrate S-2251 (Chromogenix, Instrumentation Laboratory SpA, Milano, Italy) was used to measure Pls activity. Conversion of zymogen factor XII (#233490, Calbiochem, EMD Biosciences, Inc., San Diego, Calif.) to proteolytically active factor XII (factor XIIa) was assayed by measurement of the conversion of chromogenic substrate Chromozym-PK (Roche Diagnostics, Almere, The Netherlands) by kallikrein. Chromozym-PK was used at a concentration of 0.3 mM. Factor XII, human plasma prekallikrein (#529583, Calbiochem) and human plasma cofactor high-molecular weight kininogen (#422686, Calbiochem) were used at concentrations of 1 μg ml^−1. […] Assays were performed using microtiter plates (Costar, Cambridge, Mass., USA). Peptides and proteins were tested for their ability to activate factor XII. […] The conversion of Chromozym-PK was recorded kinetically at 37° C. for at least 60 minutes. […]
Formulated protein therapeutics were obtained from the local hospital pharmacy and were used as supplied by the manufacturers. […] Enhancement in fluorescence of ThT and Congo red was measured with all formulated protein therapeutics. […]

[4] = Congo red fluorescence of protein solutions; type: physicochemical
Description: Background signals from buffer, buffer with Congo red and protein/peptide solution without Congo red were subtracted from corresponding measurements with protein solution incubated with Congo red. Fluorescence was measured in triplicate on a Hitachi F-4500 fluorescence spectrophotometer (Ltd., Tokyo, Japan).
as §1

Fn F4-5 = molecular target: T4, Fn F4-5 (Homo sapiens, UniProt P02751); assay: Biacore surface plasmon resonance, binding to immobilized Fn F4-5
T4 construct: amino-acids NH2—I182-V276-COOH of Fn F4-5; made in house; host or cells: Saccharomyces cerevisiae
Description: Binding of cross-β structure containing peptides/proteins was studied using surface plasmon resonance technology with a Biacore 2000 apparatus (Biacore AB, Uppsala, Sweden). A standardized amine coupling procedure was used to couple proteins with F domains to a CM5 chip (Biacore AB, Uppsala, Sweden). First, the dextran surface of the chips was activated by a 35 μl injection with a 1:1 mixture of 0.1 M N-hydroxysuccinimide (NHS) and 0.4 M N-ethyl-N′-(dimethylaminopropyl)carbodiimide (EDC) at a flow rate of 5 μl min.^−1. Then, the proteins were covalently coupled to the activated dextran surface. Remaining activated groups in each of the four flow channels were blocked by injection of 35 μl of 1 M ethanolamine hydrochloride pH 8.5. EDC, NHS and ethanolamine hydrochloride were obtained from Biacore. On one chip, on channels 1 to 4, buffer (reference channel), the soluble extracellular part of receptor for advanced glycation endproducts (sRAGE), tPA and K2P-tPA were immobilized. […] Binding of albumin-AGE was determined with a solution of 3.9 μg ml^−1 albumin-AGE in running buffer. albumin-AGE was filtered on a Millex-GV 0.22 μm filter unit (Millipore). […] Binding of Hb-AGE was also tested after centrifugation for 10 min. at 16,000*g alternative to filtration. tPA activation before and after filtration was assessed with a Plg-activation assay. […]

tPA [5] = molecular target: T2, tPA; assay: Plasminogen-activation assay (tPA activation, S-2251); type: biochemical; conditions: 100 μg ml^−1
Description: Plasmin (Pls) activity was assayed as described^16. Peptides and proteins that were tested for their stimulatory ability were regularly used at 100 μg ml^−1. […] Chromogenic substrate S-2251 (Chromogenix, Instrumentation Laboratory SpA, Milano, Italy) was used to measure Pls activity. Conversion of zymogen factor XII (#233490, Calbiochem, EMD Biosciences, Inc., San Diego, Calif.) to proteolytically active factor XII (factor XIIa) was assayed by measurement of the conversion of chromogenic substrate Chromozym-PK (Roche Diagnostics, Almere, The Netherlands) by kallikrein. Chromozym-PK was used at a concentration of 0.3 mM. Factor XII, human plasma prekallikrein (#529583, Calbiochem) and human plasma cofactor high-molecular weight kininogen (#422686, Calbiochem) were used at concentrations of 1 μg ml^−1. […] Assays were performed using microtiter plates (Costar, Cambridge, Mass., USA). Peptides and proteins were tested for their ability to activate factor XII. 150 μg ml^−1 kaolin, an established activator of factor XII was used as positive control and solvent (H2O) as negative control. The conversion of Chromozym-PK was recorded kinetically at 37° C. for at least 60 minutes. Assays were done in duplicate.
as §1
To prepare structurally altered ovalbumin (OVA) with amyloid cross-β structures, purified OVA (Sigma, A-7641, lot 071k7094) was heated to 85° C. One mg ml^−1 OVA in 67 mM NaPi buffer pH 7.0, 100 mM NaCl, was heated for two cycles in PCR cups in a PTC-200 thermal cycler (MJ Research, Inc., Waltham, Mass., USA). In each cycle, OVA was heated from 30 to 85° C. at a rate of 5° C./min. Native OVA (nOVA) and heat-denatured OVA (dOVA) were tested in the ThT fluorescence assay and in the Plg-activation assay. In the fluorescence assay and in the Plg-activation assay, 25 and 100 μg ml^−1 nOVA and dOVA were tested, respectively. TEM images of nOVA and dOVA were taken to check for the presence of large aggregates.
MSA (#126674, Calbiochem) was dissolved in 8 M urea, 100 mM Tris-HCl pH 8.2, at 10 mg ml^−1 final concentration. Dithiothreitol (DTT) was added to a final concentration of 10 mM. Air was replaced by N2 and the solution was incubated for 2 h at room temperature. Then, the solution was transferred to ice and iodoacetamide was added from a 1 M stock to a final concentration of 20 mM. […] Alkyl-MSA was dialyzed against H2O before use. […] In the ThT-fluorescence assay 25 μg ml^−1 nMSA and alkyl-MSA were tested, and in the Plg-activation assay 100 μg ml^−1 was tested. The presence of aggregates or fibrils was analyzed using TEM.
Lyophilized sterile glucagon was dissolved at 1 mg ml^−1 in H2O with 10 mM HCl. The solution was subsequently kept at 37° C. for 24 h, at 4° C. for 14 days and again at 37° C. for 9 days. […] TEM analysis was performed to assess the presence of large multimeric structures.

T4 sequence (P02751 182-276): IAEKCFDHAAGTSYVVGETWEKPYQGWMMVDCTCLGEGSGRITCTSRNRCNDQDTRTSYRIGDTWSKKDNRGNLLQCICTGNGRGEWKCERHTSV
T2 sequence (P00750 36-562): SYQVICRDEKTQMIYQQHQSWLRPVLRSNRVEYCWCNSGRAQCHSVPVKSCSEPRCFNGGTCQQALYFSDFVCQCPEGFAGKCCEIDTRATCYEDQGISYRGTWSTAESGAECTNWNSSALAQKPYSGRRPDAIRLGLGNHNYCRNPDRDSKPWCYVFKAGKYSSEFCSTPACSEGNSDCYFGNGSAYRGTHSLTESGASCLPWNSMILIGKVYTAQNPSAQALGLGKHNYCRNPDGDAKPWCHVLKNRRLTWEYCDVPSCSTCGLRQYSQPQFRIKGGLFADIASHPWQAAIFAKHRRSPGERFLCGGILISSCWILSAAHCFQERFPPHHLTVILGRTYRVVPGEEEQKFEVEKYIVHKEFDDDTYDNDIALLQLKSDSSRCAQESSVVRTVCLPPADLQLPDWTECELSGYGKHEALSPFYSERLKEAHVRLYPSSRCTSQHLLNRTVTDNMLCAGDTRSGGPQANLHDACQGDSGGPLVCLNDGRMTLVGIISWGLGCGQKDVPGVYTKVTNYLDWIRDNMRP
T1 sequence (P02769 25-607): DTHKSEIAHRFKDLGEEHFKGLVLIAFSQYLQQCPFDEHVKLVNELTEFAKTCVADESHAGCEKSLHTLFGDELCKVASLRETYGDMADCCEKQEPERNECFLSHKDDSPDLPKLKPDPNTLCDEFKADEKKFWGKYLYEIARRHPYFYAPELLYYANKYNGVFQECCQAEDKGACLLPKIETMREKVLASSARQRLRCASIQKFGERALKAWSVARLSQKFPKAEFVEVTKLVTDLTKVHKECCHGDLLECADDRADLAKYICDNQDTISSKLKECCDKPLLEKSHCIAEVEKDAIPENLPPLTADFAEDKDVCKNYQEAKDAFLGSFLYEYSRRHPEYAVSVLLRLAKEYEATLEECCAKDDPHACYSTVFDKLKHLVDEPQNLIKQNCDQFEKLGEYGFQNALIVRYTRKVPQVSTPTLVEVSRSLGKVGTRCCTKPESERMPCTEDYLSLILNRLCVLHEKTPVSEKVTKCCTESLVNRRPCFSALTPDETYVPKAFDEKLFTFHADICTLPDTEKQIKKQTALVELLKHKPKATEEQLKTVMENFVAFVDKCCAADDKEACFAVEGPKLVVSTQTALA

Molecule: Nc1c(/N=N/c2ccc(-c3ccc(/N=N/c4cc(S(=O)(=O)O)c5ccccc5c4N)cc3)cc2)cc(S(=O)(=O)O)c2ccccc12 [Congo red]
- inhibition at 200 µM (platelets; Homo sapiens, Platelet, 200 μM, read-out: inhibition of platelet aggregation): ≤ 30%
- influence on binding of LRP cl-IV to BSA-AGE [1]: inhibit binding of LRP cl-IV to BSA-AGE to a large extent
- competition for tPA binding to amyloid-like aggregates [2]: can efficiently compete for tPA binding

- binding of tPA (tPA [3]): binding of tPA was established
- activation of factor XII (factor XII; kept at 37° C.): activated factor XII
- activation of the factor XII/prekallikrein contact system (factor XII; stored at 4° C.): not
Molecule: Gelatin
- enhancement of Congo red fluorescence ([4]; stored at 4° C. and 37° C.): enhanced Congo red fluorescence in a storage temperature dependent manner
- enhancement of Congo red fluorescence ([4]; stored at the recommended storage temperature of 4° C.): enhanced the fluorescence of Congo red

- binding to the Fn F4-5 doublet (Fn F4-5; Biacore, native Hb at 25 nM): bound
- pKd (Fn F4-5; immobilized Fn F4-5, Biacore CM5 chip, read-out: concentration of ligand that results in half maximum binding to Fn F4-5): ≥ 6.10 and 6.10
- tPA activating properties (tPA [5]): absence of tPA activating properties
Molecule: endostatin

Molecule: tPA: tissue-type plasminogen activator
- inhibition of thrombin-induced aggregation (platelets; 1 μM): 55%
